Test results reported in the NIST ThermoML archive (doi:10.1021/je901063s).
“And” between values parts separate entries of the source, which are not always exact repeats. Equal entries are not always repeated. ± gives the expanded uncertainty stated by the source.

Assays:
[1] = of the first substance listed, at infinite dilution; xn = mol fraction of the nth substance listed; details: 101 kPa, Liquid, flow mixing microcalorimeter, x1 = 0
[2] = activity coefficient (dimensionless); of the first substance listed, at infinite dilution; xn = mol fraction of the nth substance listed; details: 101 kPa, Liquid, inert gas stripping, headspace analysis in two variants - the classical and the relative, Rayleigh distillation, and circulation still, x1 = 0

| SMILES | partial molar enthalpy ([1]; 288.15 K) [kcal/mol] | partial molar enthalpy ([1]; 298.15 K) [kcal/mol] | partial molar enthalpy ([1]; 308.15 K) [kcal/mol] | activity coefficient ([2]; 273.35 K) | activity coefficient ([2]; 283.15 K) | activity coefficient ([2]; 293.15 K) | activity coefficient ([2]; 303.15 K) | activity coefficient ([2]; 313.15 K) | activity coefficient ([2]; 323.15 K) | activity coefficient ([2]; 333.15 K) | activity coefficient ([2]; 343.15 K) | activity coefficient ([2]; 353.15 K) | activity coefficient ([2]; 363.15 K) | activity coefficient ([2]; 371.15 K) | activity coefficient ([2]; 361.25 K) | activity coefficient ([2]; 371.45 K) |
| --- | --- | --- | --- | --- | --- | --- | --- | --- | --- | --- | --- | --- | --- | --- | --- | --- |
| CCC(C)CO (stereo unspecified) [2-methyl-1-butanol] + O | -2.67 ± 0.0956 | -1.98 ± 0.0478 | -1.29 ± 0.0239 | 86.3 ± 5.2 | 117 ± 7 | 138 and 134 | 158 and 151 | 163 and 173 | 180 and 173 | 170 and 179 | 169 ± 10 | 160 ± 10 | 162 ± 10 |  |  |  |
| CCC(C)(C)O [2-methylbutan-2-ol] + O |  |  |  | 18.3 ± 1.1 | 24.5 ± 1.5 | 31.7 and 34.6 | 41.3 and 39.2 | 49 and 46.5 | 52.3 and 56.9 | 59.3 and 61.4 | 64.2 ± 3.9 | 67.1 ± 4 |  |  | 75.4 ± 4.5 | 73.9 ± 4.4 |
| CC(C)C(C)O (stereo unspecified) [3-methyl-2-butanol] + O |  |  |  | 43.5 ± 2.6 | 61.5 ± 3.7 | 73.9 ± 4.4 | 86.5 ± 5.2 | 96.6 ± 5.8 | 104 ± 6 | 110 ± 7 | 111 ± 7 | 107 ± 6 |  | 108 ± 7 |  |  |
| CC(C)CCO [3-methylbutan-1-ol] + O |  |  |  | 94.9 ± 5.7 | 126 ± 8 | 148 and 146 | 161 and 164 | 173 and 175 | 179 and 184 | 182 and 178 | 179 ± 11 | 164 ± 10 |  | 149 ± 9 |  |  |

The next lines start with results.

| partial molar enthalpy ([1]; 288.15 K) [kcal/mol] | partial molar enthalpy ([1]; 298.15 K) [kcal/mol] | partial molar enthalpy ([1]; 308.15 K) [kcal/mol] | activity coefficient ([2]; 273.35 K) | activity coefficient ([2]; 283.15 K) | activity coefficient ([2]; 293.15 K) | activity coefficient ([2]; 303.15 K) | activity coefficient ([2]; 313.15 K) | activity coefficient ([2]; 323.15 K) | activity coefficient ([2]; 333.15 K) | activity coefficient ([2]; 343.15 K) | activity coefficient ([2]; 353.15 K) | activity coefficient ([2]; 363.15 K) | activity coefficient ([2]; 371.15 K) | SMILES | activity coefficient ([2]; 361.25 K) | activity coefficient ([2]; 371.45 K) |
| --- | --- | --- | --- | --- | --- | --- | --- | --- | --- | --- | --- | --- | --- | --- | --- | --- |
|  |  |  | 48.7 ± 2.9 | 63.1 ± 3.8 | 75.6 ± 4.5 | 88.7 ± 5.3 | 101 ± 6 | 108 ± 7 | 116 ± 7 | 111 ± 7 | 120 ± 7 | 117 ± 7 | 104 ± 6 | CCC(O)CC [3-pentanol] + O |  |  |
|  |  |  | 58.8 ± 3.5 | 73.9 ± 4.4 | 89.2 and 86.1 | 104 and 103 | 119 ± 7 | 129 ± 8 | 134 ± 8 | 134 ± 8 | 124 ± 7 | 130 ± 8 | 118 ± 7 | CCCC(C)O (stereo unspecified) [pentan-2-ol] + O |  |  |
